Laboratory results: ChEMBL document CHEMBL4699496, “Exploring efficacy of natural-derived acetylphenol scaffold inhibitors for α-glucosidase: Synthesis, in vitro and in vivo biochemical studies” (Bioorg Med Chem Lett, 2020)
Active and inactive are the calls of the source. No cut-off for these calls is given here.

How the values were obtained:
[1] = Inhibition of alpha-glucosidase (unknown origin); set-up: species or system Homo sapiens
Homo sapiens [2] = species on record: Homo sapiens; test: Binding affinity to alpha-glucosidase (unknown origin) assessed as fluorescence quenching at 0.16 to 1.83 uM by fluorescence spectral analysis; settings: dose microM 0.16-1.83
Homo sapiens [3] = species on record: Homo sapiens; test: Binding affinity to alpha-glucosidase (unknown origin) assessed as change in gibbs free energy at 298 K by Van't Hoff equation analysis
Homo sapiens [4] = species on record: Homo sapiens; test: Binding affinity to alpha-glucosidase (unknown origin) assessed as binding constant at 298 K
Rattus norvegicus [5] = species on record: Rattus norvegicus; test: Inhibition of alpha-glucosidase in rat everted intestinal sleeves assessed as reduction in glucose concentration within intestinal sleeves at 0.173 mM measured for 5 to 90 mins; type: tissue-based; settings: Intestine, time min 5-90
Homo sapiens [6] = species on record: Homo sapiens; test: Binding affinity to alpha-glucosidase (unknown origin) assessed as hydrogen bonding interactions by measuring change in entropy at 304 K by Van't Hoff equation analysis
Homo sapiens [7] = species on record: Homo sapiens; test: Non-competitive inhibition of alpha-glucosidase (unknown origin) assessed as decrease in Vmax with constant Km at 0.0 to 0.92 uM using p-NPG as substrate by Lineweaver-Burk plot analysis; settings: dose microM 0.0-0.92
[8] = Binding affinity to alpha-glcosidase (unknown origin) using p-NPG as substrate; set-up: species or system Homo sapiens
Homo sapiens [9] = species on record: Homo sapiens; test: Binding affinity to alpha-glucosidase (unknown origin) assessed as Stern-Volmer quenching constant at 298 K
Homo sapiens [10] = species on record: Homo sapiens; test: Binding affinity to alpha-glucosidase (unknown origin) assessed as Stern-Volmer quenching constant at 304 K
Homo sapiens [11] = species on record: Homo sapiens; test: Binding affinity to alpha-glucosidase (unknown origin) assessed as Stern-Volmer quenching constant at 310 K
Homo sapiens [12] = species on record: Homo sapiens; test: Binding affinity to alpha-glucosidase (unknown origin) assessed as binding constant at 304 K
Homo sapiens [13] = species on record: Homo sapiens; test: Binding affinity to alpha-glucosidase (unknown origin) assessed as binding constant at 310 K
Homo sapiens [14] = species on record: Homo sapiens; test: Binding affinity to alpha-glucosidase (unknown origin) assessed as hydrophobic interactions by measuring change in enthalpy at 304 K by Van't Hoff equation analysis
Homo sapiens [15] = species on record: Homo sapiens; test: Binding affinity to alpha-glucosidase (unknown origin) assessed as change in gibbs free energy at 304 K by Van't Hoff equation analysis
Homo sapiens [16] = species on record: Homo sapiens; test: Binding affinity to alpha-glucosidase (unknown origin) assessed as change in gibbs free energy at 310 K by Van't Hoff equation analysis
Homo sapiens [17] = species on record: Homo sapiens; test: Binding affinity to alpha-glucosidase (unknown origin) assessed as change in the microenvironment of tyrosine residue by measuring red shift at 0.16 to 1.66 uM by fluorescence based Synchronous fluorescence spectroscopy; settings: dose microM 0.16-1.66
Homo sapiens [18] = species on record: Homo sapiens; test: Binding affinity to alpha-glucosidase (unknown origin) assessed as change in the microenvironment of tryptophan residue by measuring blue shift at 0.16 to 1.66 uM by fluorescence based Synchronous fluorescence spectroscopy; settings: dose microM 0.16-1.66
Mus musculus [19] = species on record: Mus musculus; test: Hypoglycemic activity in Kunming mouse assessed as reduction in maltose-induced postprandial blood glucose level measured after 15 to 120 mins by maltose loading test; type: functional, organism-based; settings: time min 15-120
Mus musculus [20] = species on record: Mus musculus; test: Hypoglycemic activity in Kunming mouse assessed as reduction in maltose-induced blood glucose AUC (0 to 120 mins) by maltose loading test; type: functional, organism-based; settings: time min 0-120
Rattus norvegicus [21] = species on record: Rattus norvegicus; test: Inhibition of alpha-glucosidase in rat everted intestinal sleeves assessed as reduction in glucose concentration outside of the intestinal sleeves at 0.173 mM measured after 5 to 90 mins; type: tissue-based; settings: Intestine, time min 5-90
Homo sapiens [22] = species on record: Homo sapiens; test: Binding affinity to alpha-glucosidase (unknown origin) assessed as enzyme complexation with compound by measuring mean height of enzyme at 2.5 uM by atomic force microscopy (reference value: 0.87 nm)
Homo sapiens [23] = species on record: Homo sapiens; test: Binding affinity to alpha-glucosidase (unknown origin) assessed as enzyme complexation with compound at 2.5 uM by measuring mean width of enzyme by atomic force microscopy (reference value: 28.35 nm)
Homo sapiens [24] = species on record: Homo sapiens; test: Binding affinity to alpha-glucosidase (unknown origin) assessed as decrease in fluorescence intensity of Tyr residue without shift in maximum emission wavelength at 0.16 to 1.66 uM by fluorescence based Synchronous fluorescence spectroscopy; settings: dose microM 0.16-1.66
Homo sapiens [25] = species on record: Homo sapiens; test: Binding affinity to alpha-glucosidase (unknown origin) assessed as quenching constant at 304 K
Homo sapiens [26] = species on record: Homo sapiens; test: Binding affinity to alpha-glucosidase (unknown origin) assessed as quenching constant at 310 K
Homo sapiens [27] = species on record: Homo sapiens; test: Binding affinity to alpha-glucosidase (unknown origin) assessed as quenching constant at 298 K
Rattus norvegicus [28] = species on record: Rattus norvegicus; test: Inhibition of alpha-glucosidase in rat everted intestinal sleeves assessed as reduction in blood glucose AUC (0-90) within intestinal sleeves at 0.173 mM; type: tissue-based; settings: Intestine, time min 0-90
Rattus norvegicus [29] = species on record: Rattus norvegicus; test: Inhibition of alpha-glucosidase in rat everted intestinal sleeves assessed as reduction in blood glucose AUC (0-90) outside of the intestinal sleeves at 0.173 mM; type: tissue-based; settings: Intestine, time min 0-90
Homo sapiens [30] = species on record: Homo sapiens; test: Binding affinity to alpha-glucosidase (unknown origin) assessed as decrease in fluorescence intensity at 0.16-1.66 uM by fluorescence based Synchronous fluorescence spectroscopy; settings: dose microM 0.16-1.66
Homo sapiens [31] = species on record: Homo sapiens; test: Binding affinity to alpha-glucosidase (unknown origin) assessed as destabilization of enzyme conformation by measuring induction of protein aggregation at 2.5 uM by atomic force microscopy

CC(C)C(=O)c1cc(Br)c(OC(=O)CBr)cc1O
IC50 ([1]; read-out: IC50): 15 µM

CC(C)C(=O)c1ccc(OC(=O)C(C)(C)C)cc1O
IC50 ([1]; read-out: IC50): 33.4 µM

Cc1ccc(C(=O)Oc2c(C)cc(C(=O)C(C)C)c(O)c2Br)cc1
IC50 ([1]; read-out: IC50): 25.2 µM

Cc1cc(C(=O)C(C)C)c(O)cc1OC(=O)c1ccc(Cl)cc1
IC50 ([1]; read-out: IC50): 10.9 µM

CC(C)C(=O)c1cc(Br)c(OC(=O)CI)cc1O
IC50 ([1]; read-out: IC50): 11.3 µM

CC(C)C(=O)c1ccc(OC(=O)CBr)cc1O
IC50 ([1]; read-out: IC50): 35.8 µM

CCCCCCC(=O)Oc1cc(O)c(C(=O)C(C)C)cc1C
IC50 ([1]; read-out: IC50): 5.93 µM

COc1ccc(C(=O)Oc2c(C)cc(C(=O)C(C)C)c(O)c2Br)cc1
IC50 ([1]; read-out: IC50): 27.6 µM

CCCCCCC(=O)c1cc(C)c(OC(=O)CI)cc1O
IC50 ([1]; read-out: IC50): 1.77 µM

CCCCCCCC(=O)c1ccc(O)cc1O
IC50 ([1]; read-out: IC50): 74.6 µM

CCC(=O)c1cc(C)c(OC(=O)CI)cc1O
IC50 ([1]; read-out: IC50): 6.22 µM

Cc1cc(C(=O)C(C)C)c(O)cc1OC(=O)c1cccc(Cl)c1
IC50 ([1]; read-out: IC50): 28.1 µM

CCCCCC(=O)c1ccc(OC(=O)CI)cc1O
IC50 ([1]; read-out: IC50): 8.97 µM

CCCCC(=O)c1ccc(OC(=O)CI)cc1O
IC50 [1]: Not Active

CC(C)C(=O)c1cc(Br)c(O)cc1O
IC50 ([1]; read-out: IC50): 29 µM

CC(C)C(=O)c1ccc(OC(=O)CI)cc1O
IC50 ([1]; read-out: IC50): 14.4 µM

CC(=O)Oc1c(C)cc(C(=O)C(C)C)c(O)c1Br
IC50 ([1]; read-out: IC50): 121 µM

CCCCCCC(=O)c1cc(C)c(O)cc1O
IC50 ([1]; read-out: IC50): 40.9 µM

CCCC(=O)Oc1cc(O)c(C(=O)C(C)C)cc1C
IC50 ([1]; read-out: IC50): 43.2 µM

CC(=O)Oc1ccc(C(=O)C(C)C)c(O)c1
IC50 [1]: Not Active

CCCCC(=O)c1cc(C)c(OC(=O)CI)cc1O
IC50 ([1]; read-out: IC50): 5.58 µM

Cc1cc(C(=O)C(C)C)c(O)cc1OC(=O)c1ccccc1
IC50 ([1]; read-out: IC50): 14.6 µM

CC(=O)Oc1cc(O)c(C(=O)C(C)C)cc1Br
IC50 [1]: Not Active

Cc1cc(C(=O)C(C)C)c(O)cc1OC(=O)Cc1ccccc1
IC50 ([1]; read-out: IC50): 25.4 µM

CCC(=O)c1ccc(O)cc1O
IC50 [1]: Not Active

CCCCC(=O)c1cc(C)c(O)cc1O
IC50 [1]: Not Active

Cc1cc(C(=O)C(C)C)c(O)c(Br)c1O
IC50 ([1]; read-out: IC50): 21 µM

Cc1cc(C(=O)C(C)C)c(O)c(Br)c1OC(=O)CI
Activity (Homo sapiens [2]): Active
deltaG (Homo sapiens [3]): -8.73 kcal/mol
Ka (Homo sapiens [4]): 1.56 10^4L/mol
inhibition (Rattus norvegicus [5]): Active
deltaS (Homo sapiens [6]): 57 J/mol/K
IC50 ([1]; read-out: IC50): 0.57 µM
inhibition (Homo sapiens [7]): Active
Ki [8]: 0.65 µM
KSV (Homo sapiens [9]): 2.98 10^4L/mol
KSV (Homo sapiens [10]): 2.59 10^4L/mol
KSV (Homo sapiens [11]): 2.24 10^4L/mol
Ka (Homo sapiens [12]): 1.45 10^4L/mol
Ka (Homo sapiens [13]): 1.36 10^4L/mol
deltaH (Homo sapiens [14]): -4.67 kcal/mol
deltaG (Homo sapiens [15]): -8.81 kcal/mol
deltaG (Homo sapiens [16]): -8.89 kcal/mol
Activity (Homo sapiens [17]): Active
Activity (Homo sapiens [18]): Active
Activity (Mus musculus [19]): Dose-dependent effect
Activity (Mus musculus [20]): Active
inhibition (Rattus norvegicus [21]): Active
Activity (Homo sapiens [22]): 3.97 nm
Activity (Homo sapiens [23]): 29.6 nm
Activity (Homo sapiens [24]): inactive
Kq (Homo sapiens [25]): 2.59 10^12L/mol/s
Kq (Homo sapiens [26]): 2.24 10^12L/mol/s
Kq (Homo sapiens [27]): 2.98 10^12L/mol/s
inhibition (Rattus norvegicus [28]): Active
inhibition (Rattus norvegicus [29]): Active
Activity (Homo sapiens [30]): Active
Activity (Homo sapiens [31]): Active

Cc1cc(C(=O)C(C)C)c(O)c(Br)c1OC(=O)CBr
IC50 ([1]; read-out: IC50): 11.9 µM

Cc1cc(C(=O)C(C)C)c(O)c(Br)c1OC(=O)C(C)(C)C
IC50 ([1]; read-out: IC50): 1.86 µM
